The values that follow come from patent publication US10633419B2, “Immunomodulators” (BRISTOL-MYERS SQUIBB COMPANY, priority 2014, dated 2020).

The structures appear in SMILES notation. pIC50: −log10 of the molar value. Positions of bridges follow the written chain, without caps; N, C: chain ends. Non-standard residues stand in square brackets, D forms with d. Residues, ends and D or L forms follow the SMILES beside them. *: point of attachment. Dap(Nα-HOOC(CH2)16CO)OH = O=C(O)CCCCCCCCCCCCCCCCC(=O)N[C@@H](CN*)C(=O)O; X6 = O=C(O)CCCCCCCCCCCCCCCCC(=O)N[C@@H](CCC(=O)NCCCOCCOCCOCCCN*)C(=O)O; X4 = O=C(O)CCCCCCCCCCCCCCCCC(=O)N[C@@H](CC(=O)NCCCOCCOCCOCCCN*)C(=O)O; X15 = O=C(O)CCCCCCCCCCNC(=O)CCCCCCCCCCNC(=O)CCC(=O)NCCCOCCOCCOCCCN*; Trp(1-CH2COOH) = N[C@@H](Cc1cn(CC(=O)O)c2ccccc12)C(=O)O; NH(CH2)14COOH = O=C(O)CCCCCCCCCCCCCCN*; d(cisHyp) = O=C(O)[C@H]1C[C@@H](O)CN1; Hyp = O=C(O)[C@@H]1C[C@@H](O)CN1; NHhexadecyl = CCCCCCCCCCCCCCCCN*; NMeNle = CCCC[C@H](NC)C(=O)O; NMeA = CN[C@@H](C)C(=O)O; Pra = C#CC[C@H](N)C(=O)O; Dab = NCC[C@H](N)C(=O)O; Dap = NC[C@H](N)C(=O)O

This assay deals with T1, PD-L1 (Homo sapiens, UniProt Q9NZQ7).
T1 construct: hPDL1(19-239)-TVMV-His; made in house; host or cells: HEK293T
T1 sequence (Q9NZQ7 with tags, fused parts or gaps): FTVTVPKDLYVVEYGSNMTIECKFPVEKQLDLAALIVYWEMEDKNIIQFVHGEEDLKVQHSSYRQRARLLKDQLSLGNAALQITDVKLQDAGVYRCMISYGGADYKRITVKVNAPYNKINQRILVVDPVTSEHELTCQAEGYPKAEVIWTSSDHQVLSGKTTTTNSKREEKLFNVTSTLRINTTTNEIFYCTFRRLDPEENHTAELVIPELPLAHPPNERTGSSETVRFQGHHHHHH
Briefly: PD-1/PD-L1 Homogenous Time-Resolved Fluorescence (HTRF) binding assay (PD-1-Ig/PD-L1-His). The following applies: inhibition of PD-1-Ig binding to PD-L1-TVMV-His; value given as range class; read-out: HTRF IC50. Summed up: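 Inhibitors pre-incubated 15 min with PD-L1-His (10 nM final), then PD-1-Ig (20 nM final) added for 15 min in dPBS/0.1% BSA/0.05% Tween-20. Eu-cryptate anti-Ig (1 nM) and APC anti-His (20 nM) added, 30 min equilibration, 665/620 nm HTRF ratio read.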
(Time-resolved FRET reads energy transfer from a long-lived donor to a nearby acceptor.)
For orientation: pIC50 means the negative decadic logarithm of the IC50, by convention in mol/L. Take `CCCC[C@H]1C(=O)N(C)[C@@H](CCCC)C(=O)N[C@@H](CC(C)C)C(=O)N[C@H](C(=O)NCCCOCCOCCOCCCNC(=O)CCC(=O)NCCCCCCCCCCC(=O)NCCCCCCCCCCC(=O)O)CSCC(=O)N[C@@H](Cc2ccc(O)cc2)C(=O)N(C)[C@@H](C)C(=O)N[C@@H](CC(N)=O)C(=O)N2CCC[C@H]2C(=O)N[C@@H](CN)C(=O)N[C@@H](CCC(N)=O)C(=O)N2C[C@H](O)C[C@H]2C(=O)N[C@@H](Cc2c[nH]c3ccccc23)C(=O)N[C@@H](CO)C(=O)N[C@@H](Cc2cn(CC(=O)O)c3ccccc23)C(=O)N1C` [Example 11087] ({CH2CO}-Y[NMeA]NP[Dap]Q[Hyp]WS[Trp(1-CH2COOH)][NMeNle][NMeNle]LC-X15; thioether N-14): the pIC50 was 7.00 to 8.00.

For `CCCCCCCCCCCCCCCCNC(=O)CNC(=O)CNC(=O)CNC(=O)CNC(=O)[C@@H]1CSCC(=O)N[C@@H](Cc2ccc(O)cc2)C(=O)N(C)[C@@H](C)C(=O)N[C@@H](CC(N)=O)C(=O)N2CCC[C@H]2C(=O)N[C@@H](CN)C(=O)N[C@@H](CC(C)C)C(=O)N2C[C@H](O)C[C@H]2C(=O)N[C@@H](Cc2c[nH]c3ccccc23)C(=O)N[C@@H](CO)C(=O)N[C@@H](Cc2c[nH]c3ccccc23)C(=O)N(C)[C@@H](CCCC)C(=O)N(C)[C@@H](CCCC)C(=O)N[C@@H](CCCNC(=N)N)C(=O)N1` [Example 11108] ({CH2CO}-Y[NMeA]NP[Dap]L[Hyp]WSW[NMeNle][NMeNle]RCGGGG-NHhexadecyl; thioether N-14), the pIC50 was 5.80 to 7.00.

With `CCCC[C@H]1C(=O)N(C)[C@@H](CCCC)C(=O)N[C@@H](CC(C)C)C(=O)N[C@H](C(=O)NCC(=O)N[C@@H](CC(=O)O)C(=O)NCCCOCCOCCOCCCNC(=O)CC[C@H](NC(=O)CCCCCCCCCCCCCCCCC(=O)O)C(=O)O)CSCC(=O)N[C@@H](Cc2ccc(O)cc2)C(=O)N(C)[C@@H](C)C(=O)N[C@@H](CC(N)=O)C(=O)N2CCC[C@H]2C(=O)N[C@@H](CN)C(=O)N[C@@H](CC(C)C)C(=O)N2C[C@H](O)C[C@@H]2C(=O)N[C@@H](Cc2c[nH]c3ccccc23)C(=O)N[C@@H](CCN)C(=O)N[C@@H](Cc2cn(CC(=O)O)c3ccccc23)C(=O)N1C` [Example 11166] ({CH2CO}-Y[NMeA]NP[Dap]L[d(cisHyp)]W[Dab][Trp(1-CH2COOH)][NMeNle][NMeNle]LCGD-X6; thioether N-14), the pIC50 is 5.80 to 7.00.

As to `CCCC[C@H]1C(=O)N(C)[C@@H](CCCC)C(=O)N[C@@H](CC(C)C)C(=O)N[C@H](C(=O)NCCCCCCCCCCCCCCC(=O)O)CSCC(=O)N[C@@H](Cc2ccc(O)cc2)C(=O)N(C)[C@@H](C)C(=O)N[C@@H](CC(N)=O)C(=O)N2CCC[C@H]2C(=O)N[C@@H](CN)C(=O)N[C@@H](CC(C)C)C(=O)N2C[C@H](O)C[C@H]2C(=O)N[C@@H](Cc2c[nH]c3ccccc23)C(=O)N[C@@H](CCN)C(=O)N[C@@H](Cc2cn(CC(=O)O)c3ccccc23)C(=O)N1C` [Example 11196] ({CH2CO}-Y[NMeA]NP[Dap]L[Hyp]W[Dab][Trp(1-CH2COOH)][NMeNle][NMeNle]LC-{NH(CH2)14COOH}; thioether N-14), the pIC50 is 7.00 to 8.00.

With `C#CC[C@H](NC(=O)[C@@H]1CSCC(=O)N[C@@H](Cc2ccc(O)cc2)C(=O)N(C)[C@@H](C)C(=O)N[C@@H](CC(N)=O)C(=O)N2CCC[C@H]2C(=O)N[C@@H](CN)C(=O)N[C@@H](CC(C)C)C(=O)N2C[C@H](O)C[C@H]2C(=O)N[C@@H](Cc2c[nH]c3ccccc23)C(=O)N[C@@H](CCN)C(=O)N[C@@H](Cc2cn(CC(=O)O)c3ccccc23)C(=O)N(C)[C@@H](CCCC)C(=O)N(C)[C@@H](CCCC)C(=O)N[C@@H](CC(C)C)C(=O)N1)C(=O)O` [INT130AF] ({CH2CO}-Y[NMeA]NP[Dap]L[Hyp]W[Dab][Trp(1-CH2COOH)][NMeNle][NMeNle]LC[Pra]-OH; thioether N-14), the negative-log IC50 (pIC50) is 8.00 to 9.52.

As to `CCCC[C@H]1C(=O)N(C)[C@@H](CCCC)C(=O)N[C@@H](CC(C)C)C(=O)N[C@H](C(=O)NCC(=O)N[C@@H](CCC(=O)O)C(=O)NCCCOCCOCCOCCCNC(=O)C[C@H](NC(=O)CCCCCCCCCCCCCCCCC(=O)O)C(=O)O)CSCC(=O)N[C@@H](Cc2ccc(O)cc2)C(=O)N(C)[C@@H](C)C(=O)N[C@@H](CC(N)=O)C(=O)N2CCC[C@H]2C(=O)N[C@@H](CN)C(=O)N[C@@H](CC(C)C)C(=O)N2C[C@H](O)C[C@@H]2C(=O)N[C@@H](Cc2c[nH]c3ccccc23)C(=O)N[C@@H](CCN)C(=O)N[C@@H](Cc2cn(CC(=O)O)c3ccccc23)C(=O)N1C` [Example 11257] ({CH2CO}-Y[NMeA]NP[Dap]L[d(cisHyp)]W[Dab][Trp(1-CH2COOH)][NMeNle][NMeNle]LCGE-X4; thioether N-14), the pIC50 was 8.00 to 9.52.

Regarding `CCCC[C@H]1C(=O)N(C)[C@@H](CCCC)C(=O)N[C@@H](CC(C)C)C(=O)N[C@H](C(=O)NCC(=O)N[C@@H](CCC(=O)NC[C@H](NC(=O)CCCCCCCCCCCCCCCCC(=O)O)C(=O)O)C(=O)O)CSCC(=O)N[C@@H](Cc2ccc(O)cc2)C(=O)N(C)[C@@H](C)C(=O)N[C@@H](CC(N)=O)C(=O)N2CCC[C@H]2C(=O)N[C@@H](CN)C(=O)N[C@@H](CC(C)C)C(=O)N2C[C@H](O)C[C@H]2C(=O)N[C@@H](Cc2c[nH]c3ccccc23)C(=O)N[C@@H](CCN)C(=O)N[C@@H](Cc2cn(CC(=O)O)c3ccccc23)C(=O)N1C` [Example 11173] ({CH2CO}-Y[NMeA]NP[Dap]L[Hyp]W[Dab][Trp(1-CH2COOH)][NMeNle][NMeNle]LCGE(Dap(Nα-HOOC(CH2)16CO)OH)-OH; thioether N-14), the pIC50 is 5.80 to 7.00.
